Test results published in the NIST ThermoML archive (doi:10.1021/je030216r).
Numbers after ± are expanded uncertainties.

How the values were obtained:
[1] = 293.15 K; 101.33 kPa; Liquid
[2] = Boiling temperature at pressure P; conditions: 100 kPa; Liquid; Ebulliometric method (Recirculating still)
[3] = refractive index (Na D-line) (dimensionless); conditions: 293.15 K; 101.33 kPa; Liquid; Standard Abbe refractometry

mass density [1] [kg/m3]	Boiling temperature at pressure P [2] [°C]	refractive index [3]	SMILES
1113.6 ± 5.1	197.48 ± 0.2	1.4328 ± 0.0008	OCCO [1,2-ethanediol]
817.8 ± 5	128.40 ± 0.2	1.4095 ± 0.0007	CCC(C)CO (centres undefined) [2-methyl-1-butanol]
808.1 ± 5	131.30 ± 0.2	1.4054 ± 0.0007	CC(C)CCO [3-methylbutan-1-ol]
